From US8987194B2, “Mutant Nisin ser 29 derivatives and the use thereof” (priority 2009, dated 2015)
Like-named read-outs stand apart in the source and are kept apart here. Where no end group is shown, it is not given here.

What was measured:
gram-negative = conditions: introduction of positively charged residues; cited from earlier work
L. lactis HP [1] = assay: Deferred antagonism assay (agar overlay); format: cell-based, Lactococcus lactis spp cremoris; conditions: in Table 2 a listed strain = enhanced
Description: (§1) Deferred antagonism assays were performed by replicating strains on GM17 agar plates and allowing them to grow overnight before overlaying with either GM17/BHI/TSB-YE/MH agar (0.75% w/v agar) seeded with the appropriate indicator strain. For higher throughput screening of the S29X bank, deferred antagonism assays were performed by replicating strains using a 96 pin replicator (Boekel) or spotting 5 μl of a fresh overnight culture on GM17 agar plates and allowing them to grow overnight. Following overnight growth the strains were subjected to UV radiation for 30 minutes prior to overlaying with either GM17/BHI/TS/MH agar (0.75% w/v agar) seeded with the appropriate indicator

[2] = literature reports; cited from earlier work
pore formation = conditions: cited from earlier work
[3] = system: penicillin-susceptible strain of Strep. pneumoniae; conditions: cited from earlier work
L. lactis HP [4] = assay: Agarose-based diffusion assay of Nisin A S29 supernatants; format: cell-based, L. lactis spp cremoris; conditions: for Measurement of inhibitory zone, Average a + b + c: average of three replicates; for Measurement of inhibitory zone, L. lactis HP (a): replicate a; for Measurement of inhibitory zone, L. lactis HP (b): replicate b; for Measurement of inhibitory zone, L. lactis HP (c): replicate c
Description: The Nisin A S29 derivatives were retested using this assay (See FIG. 1).
The modified agarose-based assay was performed against 2 indicator strains, L. lactis spp cremoris HP (Table. 6) and Listeria monocytogenes LO28 (Table. 7).

[5] = system: Gram-positive pathogens including Listeria monocytogenes and/or Staphylococcus aureus; conditions: cited from earlier work
S. aureus RF122 = assay: Deferred antagonism assay (agar overlay); format: cell-based, Staphylococcus aureus; conditions: in Table 2 a listed strain = enhanced
Description: as §1

Substance	Measurement of inhibitory zone, Average a + b + c (L. lactis HP [4])	Measurement of inhibitory zone, L. lactis HP (a) (L. lactis HP [4])	Measurement of inhibitory zone, L. lactis HP (b) (L. lactis HP [4])	Measurement of inhibitory zone, L. lactis HP (c) (L. lactis HP [4])	other results
M21K (ITSISLCTPGCKTGALMGCNKKTATCHCSIHVSK; UniProt P13068 24-57, looked up, variant M21K)	–	–	–	–	outcome with respect to anti-gram-negative activity (gram-negative): more beneficial outcome
Nisin F	–	–	–	–	bioactivity compared to wild type (natural) Nisin variant (L. lactis HP [1]): Nisin A<Nisin F
M21E (ITSISLCTPGCKTGALMGCNEKTATCHCSIHVSK; UniProt P13068 24-57, looked up, variant M21E)	–	–	–	–	antimicrobial activity of bioengineered derivative relative to Nisin [2]: detrimental impact
K22E (ITSISLCTPGCKTGALMGCNMETATCHCSIHVSK; UniProt P13068 24-57, looked up, variant K22E)	–	–	–	–	antimicrobial activity of bioengineered derivative relative to Nisin [2]: detrimental impact
N20P/M21P: Nisin peptide with proline incorporation, literature (ITSISLCTPGCKTGALMGCPPKTATCHCSIHVSK; cysteine pairing not given here; also: lantibiotic nisin-A post-translational modifications, not placed; UniProt P13068 24-57, looked up, variant N20P M21P)	–	–	–	–	pore formation (pore formation): incapable of pore formation
Nisin	–	–	–	–	minimum inhibitory concentration (MIC) ([3]; before serial exposure to Nisin (1 mg/L)): 0.4 µg/mL; minimum inhibitory concentration (MIC) ([3]; stable Nisin-resistant mutants after serial exposure to Nisin (1 mg/L)): 6.4 µg/mL
Nisin A S29M: Nisin A derivative with M at position 29 (ITSISLCTPGCKTGALMGCNMKTATCHCMIHVSK; cysteine pairing not given here; also: lantibiotic nisin-A post-translational modifications, not placed; UniProt P13068 24-57, looked up, variant S29M)	13.56 mm	13.2 mm	14.5 mm	13.0 mm	–
I30W: aromatic residue-containing form of Nisin, literature (ITSISLCTPGCKTGALMGCNMKTATCHCSWHVSK; UniProt P13068 24-57, looked up, variant I30W)	–	–	–	–	antimicrobial activity of bioengineered derivative relative to Nisin [2]: reduced antimicrobial activity
Nisin A S29F: Nisin A derivative with F at position 29 (ITSISLCTPGCKTGALMGCNMKTATCHCFIHVSK; cysteine pairing not given here; also: lantibiotic nisin-A post-translational modifications, not placed; UniProt P13068 24-57, looked up, variant S29F)	11.0 mm	10.6 mm	12.2 mm	10.2 mm	–
N20F: aromatic residue-containing form of Nisin, literature (ITSISLCTPGCKTGALMGCFMKTATCHCSIHVSK; UniProt P13068 24-57, looked up, variant N20F)	–	–	–	–	antimicrobial activity of bioengineered derivative relative to Nisin [2]: reduced antimicrobial activity
Nisin A S29Q: Nisin A derivative with Q at position 29 (ITSISLCTPGCKTGALMGCNMKTATCHCQIHVSK; cysteine pairing not given here; also: lantibiotic nisin-A post-translational modifications, not placed; UniProt P13068 24-57, looked up, variant S29Q)	15.30 mm	15.3 mm	15.2 mm	15.4 mm	–
Nisin A S29I: Nisin A derivative with I at position 29 (ITSISLCTPGCKTGALMGCNMKTATCHCIIHVSK; cysteine pairing not given here; also: lantibiotic nisin-A post-translational modifications, not placed; UniProt P13068 24-57, looked up, variant S29I)	9.9 mm	9.2 mm	11.3 mm	9.2 mm	–
Nisin A S29L: Nisin A derivative with L at position 29 (ITSISLCTPGCKTGALMGCNMKTATCHCLIHVSK; cysteine pairing not given here; also: lantibiotic nisin-A post-translational modifications, not placed; UniProt P13068 24-57, looked up, variant S29L)	12.76 mm	12.6 mm	13.5 mm	12.2 mm	–
K22S: Nisin hinge region derivative (Field et al., 2008) (ITSISLCTPGCKTGALMGCNMSTATCHCSIHVSK; cysteine pairing not given here; also: lantibiotic nisin-A post-translational modifications, not placed; UniProt P13068 24-57, looked up, variant K22S)	–	–	–	–	bioactivity and specific activity against Gram-positive pathogens [5]: enhanced bioactivity and specific activity
Nisin A S29H: Nisin A derivative with H at position 29 (ITSISLCTPGCKTGALMGCNMKTATCHCHIHVSK; cysteine pairing not given here; also: lantibiotic nisin-A post-translational modifications, not placed; UniProt P13068 24-57, looked up, variant S29H)	10.93 mm	11.2 mm	10.7 mm	10.9 mm	–
I1W: aromatic residue-containing form of Nisin, literature (WTSISLCTPGCKTGALMGCNMKTATCHCSIHVSK; UniProt P13068 24-57, looked up, variant I1W)	–	–	–	–	antimicrobial activity of bioengineered derivative relative to Nisin [2]: reduced antimicrobial activity
N20P: Nisin hinge region derivative (Field et al., 2008) (ITSISLCTPGCKTGALMGCPMKTATCHCSIHVSK; cysteine pairing not given here; also: lantibiotic nisin-A post-translational modifications, not placed; UniProt P13068 24-57, looked up, variant N20P)	–	–	–	–	bioactivity and specific activity against Gram-positive pathogens [5]: enhanced bioactivity and specific activity
Nisin Z	–	–	–	–	bioactivity compared to wild type (natural) Nisin variant (S. aureus RF122): Nisin A<Nisin Z
